Measured values reported in ChEMBL document CHEMBL1146964, “Factor VIIa inhibitors: improved pharmacokinetic parameters” (Bioorg Med Chem Lett, 2006).
pKi: −log10 of the molar value.

Tests used:
[1] = Mean residence time in iv dosed rat; format: ADME, organism-based; conditions: in vivo
[2] = molecular target: Coagulation factor VII/tissue factor (Homo sapiens, UniProt P08709); assay: Binding affinity to factor7a/TF complex; format: protein-complex assay
[3] = Plasma clearance in iv dosed rat
[4] = Bioavailability in sc dosed rat; format: ADME, organism-based; conditions: in vivo

Sequence of Coagulation factor VII/tissue factor (P08709 61-212 limits assumed): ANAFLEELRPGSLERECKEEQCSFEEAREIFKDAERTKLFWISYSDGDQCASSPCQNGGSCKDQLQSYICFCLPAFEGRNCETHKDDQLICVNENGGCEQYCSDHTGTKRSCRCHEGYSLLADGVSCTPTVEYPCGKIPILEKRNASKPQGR
Sequence of Coagulation factor VII/tissue factor (P08709 213-466 limits assumed): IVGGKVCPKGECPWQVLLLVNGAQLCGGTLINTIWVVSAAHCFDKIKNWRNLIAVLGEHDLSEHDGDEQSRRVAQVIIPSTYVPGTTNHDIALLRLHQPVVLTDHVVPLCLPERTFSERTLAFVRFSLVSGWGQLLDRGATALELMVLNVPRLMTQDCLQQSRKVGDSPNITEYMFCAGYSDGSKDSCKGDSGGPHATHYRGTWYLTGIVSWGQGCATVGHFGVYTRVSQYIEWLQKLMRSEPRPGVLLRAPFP
Sequence of Coagulation factor VII/tissue factor (P13726 33-295 partner limits assumed): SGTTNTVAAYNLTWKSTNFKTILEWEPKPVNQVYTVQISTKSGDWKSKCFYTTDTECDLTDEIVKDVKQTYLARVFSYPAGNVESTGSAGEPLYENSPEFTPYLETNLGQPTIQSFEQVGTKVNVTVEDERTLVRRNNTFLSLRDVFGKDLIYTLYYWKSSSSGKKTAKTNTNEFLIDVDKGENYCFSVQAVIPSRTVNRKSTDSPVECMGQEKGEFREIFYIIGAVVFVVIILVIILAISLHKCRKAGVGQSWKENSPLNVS

Row | MRT [1] | pKi [2] | clearance [3] | bioavailability [4] | Structure (SMILES)
1 | < 1 h | 8.40 | 2.6 mL/min/kg | – | N=C(N)c1ccc2[nH]c(-c3cc(CC(CC(=O)O)C(=O)O)cc(-c4cc(F)ccc4O)c3O)nc2c1 (centres undefined)
2 | 1.5 h | 7.89 | – | – | N=C(N)c1ccc2[nH]c(-c3cc(C(CC(=O)O)CC(=O)O)cc(-c4cccc([N+](=O)[O-])c4)c3O)cc2c1
3 | < 1 h | 8.70 | 8.1 mL/min/kg | – | N=C(N)c1ccc2[nH]c(-c3cc(CC(=O)O)cc(-c4cc(F)ccc4O)c3O)nc2c1
4 | 5 h | 7.77 | – | – | N=C(N)c1ccc2nc(-c3cc(C(CCC(=O)O)C(=O)O)cc(-c4cccc([N+](=O)[O-])c4)c3O)[nH]c2c1 (centres undefined)
5 | < 1 h | 7.82 | – | – | N=C(N)c1ccc2nc(-c3cc(CC(=O)O)cc(-c4cccc([N+](=O)[O-])c4)c3O)[nH]c2c1
6 | 9 h | 8.40 | – | > 90% | N=C(N)c1ccc2[nH]c(-c3cc(C(CC(=O)O)C(=O)O)cc(-c4cc(F)ccc4O)c3O)nc2c1 (centres undefined)
7 | – | 7.44 | – | – | N=C(N)c1ccc2nc(-c3cc(C(CC(=O)O)CC(=O)O)cc(-c4cccc([N+](=O)[O-])c4)c3O)[nH]c2c1
8 | < 1 h | 7.68 | – | – | N=C(N)c1ccc2nc(-c3cc(CC(C(=O)O)C(=O)O)cc(-c4cccc([N+](=O)[O-])c4)c3O)[nH]c2c1
9 | > 24 h | 7.66 | 0.04 mL/min/kg | – | N=C(N)c1ccc2[nH]c(-c3cc(C(CC(=O)O)C(=O)O)cc(-c4cccc([N+](=O)[O-])c4)c3O)nc2c1 (centres undefined)
10 | > 24 h | 9.00 | – | – | N=C(N)c1ccc2[nH]c(-c3cc(C(CC(=O)O)C(=O)O)cc(-c4cccc([N+](=O)[O-])c4)c3O)cc2c1 (centres undefined)
11 | < 1 h | – | – | – | N=C(N)c1ccc2[nH]c(-c3cc(CC(=O)O)cc(-c4cccc([N+](=O)[O-])c4)c3O)cc2c1
